Measurements reported in patent publication US20230183248A1, “PYRROLO[1,2-D][1,2,4]TRIAZINE-2-YL-ACETAMIDES AS INHIBITORS OF THE NLRP3 INFLAMMASOME PATHWAY” (JANSSEN PHARMACEUTICA NV, priority 2020, published 2023).

Columns and labels:
[1] = system: TNF; assay: PBMC assay: LPS-stimulated TNF cytokine levels; format: cell-based; settings: Homo sapiens, PBMC, human PBMCs, 30 min compound pre-incubation, 100 ng/ml LPS for 6 hrs, supernatant, MSD
Protocol: (§1) Peripheral venous blood was collected from healthy individuals and human peripheral blood mononuclear cells (PBMCs) were isolated from blood by Ficoll-Histopaque (Sigma-Aldrich, A0561) density gradient centrifugation. After isolation, PBMCs were stored in liquid nitrogen for later use. Upon thawing, PBMC cell viability was determined in growth medium (RPMI media supplemented with 10% fetal bovine serum, 1% Pen-Strep and 1% L-glutamine). Compounds were spotted in a 1:3 serial dilution in DMSO and diluted to the final concentration in 30 µl medium in 96 well plates (Falcon, 353072). PBMCs were added at a density of 7.5 × 10^4 cells per well and incubated for 30 min in a 5% CO2 incubator at 37° C. LPS stimulation was performed by addition of 100 ng/ml LPS (final concentration, Invivogen, tlrl-smlps) for 6 hrs followed by collection of cellular supernatant and the analysis of IL-1β […] and TNF cytokines levels (µM) via MSD technology according to manufacturers’ guidelines (MSD, K151A0H).
(§2) The IC50 values (for IL-1β) and EC50 values (TNF) were obtained on compounds of the invention/examples, and are depicted in the following table: […]

[2] = system: IL-1β; assay: PBMC assay: LPS-stimulated IL-1β release; format: cell-based; settings: human PBMCs, 30 min compound pre-incubation, 100 ng/ml LPS for 6 hrs, supernatant, MSD
Protocol: as §1, §2

| Structure (SMILES) | EC50 [1] [µM] | IC50 ([2]; Homo sapiens, PBMC) [µM] | IC50 [2] [µM] |
| --- | --- | --- | --- |
| CC(C)c1nn(CC(=O)Nc2ccncn2)c(=O)c2cc(Cl)cn12 [Compound 6F] | > 10 | 3.67 |  |
| CC(C)c1nn(CC(=O)Nc2ccncn2)c(=O)c2cc(Cc3ccccc3)cn12 [Compound 75F] | > 10 | > 10 |  |
| CC(=O)N(C)Cc1cc2c(=O)n(CC(=O)Nc3ccncn3)nc(C(C)C)n2c1 [Compound 70F, N-((4-isopropyl-1-oxo-2-(2-oxo-2-(pyrimidin-4-ylamino)ethyl)-1,2-dihydropyrrolo[1,2-d][1,2,4]triazin-7-yl)methyl)-N-methylacetamide] | > 10 | > 10 |  |
| CCc1cc2c(=O)n(CC(=O)Nc3ccncn3)nc(C(C)C)n2c1 [Compound 23F] | > 10 | 0.28 |  |
| CC(C)c1nn(CC(=O)Nc2ccncn2)c(=O)c2cc(-c3cn[nH]c3)cn12 [Compound 91F] | > 10 | > 10 |  |
| CC(C)c1nn(CC(=O)Nc2cccnc2)c(=O)c2cc(Br)cn12 [Compound 8F] | > 10 | 4.24 |  |
| CCOC(C)c1nn(CC(=O)Nc2ccncn2)c(=O)c2cc(C(C)C)cn12 (stereo not shown) [Compound 40F] | > 10 | 8.13 |  |
| CC(=O)N1CC(c2nn(CC(=O)Nc3ccncn3)c(=O)c3cc(C(C)C)cn23)C1 [Compound 46F] | > 10 | > 10 |  |
| CC(C)c1nn(CC(=O)Nc2ccncn2)c(=O)c2cc(I)cn12 [Compound 5F, 2-(7-iodo-4-isopropyl-1-oxo-pyrrolo[1,2-d][1,2,4]triazin-2-yl)-N-pyrimidin-4-yl-acetamide] | > 10 |  |  |
| CC(C)c1cc2c(=O)n(CC(=O)Nc3ccncc3F)nc(C(C)C)n2c1 [Compound 18F] | > 10 | 0.33 |  |
| CC(C)c1cc2c(=O)n(CC(=O)Nc3ccncn3)nc(C(C)(C)O)n2c1 [Compound 37F, 2-[4-(1-hydroxy-1-methyl-ethyl)-7-isopropyl-1-oxo-pyrrolo[1,2-d][1,2,4]triazin-2-yl]-N-pyrimidin-4-yl-acetamide] | > 10 | 4.28 |  |
| CC(C)c1nn(CC(=O)Nc2ccncn2)c(=O)c2cc(C(C)(C)O)cn12 [Compound 86F, 2-(7-(2-hydroxypropan-2-yl)-4-isopropyl-1-oxopyrrolo[1,2-d][1,2,4]triazin-2(1H)-yl)-N-(pyrimidin-4-yl)acetamide] | > 10 | > 10 |  |
| CCCCc1nn(CC(=O)N[C@H]2C[C@@](C)(O)C2)c(=O)c2cc(C(C)C)cn12 [Compound 60F] | > 10 | 1.47 |  |
| CCc1nn(CC(=O)Nc2ccncn2)c(=O)c2cc(C3CC3)cn12 [Compound 20F] | > 10 | 0.59 |  |
| COc1nn(CC(=O)Nc2ccncn2)c(=O)c2cc(C(C)C)cn12 [Compound 53F] | > 10 | 1.37 | 1.88 |
| CC(C)c1cc2c(=O)n(CC(=O)Nc3ccncn3)nc(N(C)CC3CC3)n2c1 [Compound 57F] | > 10 | 1.66 |  |
| CC(C)c1nn(CC(=O)Nc2ccncn2)c(=O)c2cc(C(C)F)cn12 (stereo not shown) [Compound 39F, 2-[7-(1-fluoroethyl)-4-isopropyl-1-oxo-pyrrolo[1,2-d][1,2,4]triazin-2-yl]-N-pyrimidin-4-yl-acetamide] | > 10 | 4.31 |  |
| CC(C)c1nn(CC(=O)Nc2ccncn2)c(=O)c2cc(C3CCOCC3)cn12 [Compound 79F] | > 10 | > 10 |  |
| COc1nn(CC(=O)NC2CCOCC2)c(=O)c2cc(C(C)C)cn12 [Compound 66F] | > 10 | 5.04 |  |
| CCc1nn(CC(=O)Nc2ccncc2F)c(=O)c2cc(C3CC3)cn12 [Compound 21F] | > 10 | 0.68 |  |
| CC(C)c1cc2c(=O)n(CC(=O)N[C@@H]3CCCN(C4CCC4)C3)nc(C(C)C)n2c1 [Compound 67F] | > 10 |  |  |
| CC(C)c1cc2c(=O)n(CC(=O)Nc3ccc4nncn4c3)nc(C(C)C)n2c1 [Compound 69F] |  | 0.28 |  |
| CC(C)c1nn(CC(=O)Nc2ccncn2)c(=O)c2cc(CC3CC(=O)N(C)C3)cn12 (stereo not shown) [Compound 81F] |  | > 10 |  |
